Test results taken from US9163066B2, “Antimicrobial lytic peptides” (priority 2010, dated 2015).
Read-outs that look alike come from different tables or passages of the source.

Columns and labels:
[1] = system: red blood cells (erythrocytes); assay: Hemolytic activity of the peptides (hemoglobin release, absorbance at 412 nm); format: cell-based
Procedure: Hemolysis as defined herein is an in vitro assay where the compounds tendency to lyse red blood cells is determined. Presumably, the compounds that are less hemolytic will be less toxic in vivo. Increasing amounts of compound are added to solutions containing red blood cells and left for a specified time and then lysis is determined spectrophotometrically by measuring hemoglobin release.
A small volume of a suspension of erythrocytes (about 100 million) is kept on ice with a specific amount of lytic peptide. The cells are then placed in a 37° C. water bath for 10 min, vortexed and centrifuged at 1000 g for 2 min. The supernatant was removed and the amount of hemoglobin that was released was determined by the samples' absorbance at 412 nm. Control values without added peptide were subtracted from the absorbance readings.
The numerical difference between the value of the mean of hemolysis and the mean of the activity is a useful way to determine those peptides having the most desired activity.

bacteria = assay: Antibacterial activity of the peptides, broth microdilution MIC, mean activity (Table II); format: cell-based; conditions: overnight incubation (18 to 24 h)
Procedure: (§1) Minimum Inhibitory Concentration or MIC for the purpose of this invention is the lowest concentration of an antimicrobial that will inhibit the visible growth of a microorganism after overnight incubation. Minimum inhibitory concentrations are important in diagnostic laboratories to confirm resistance of microorganisms to an antimicrobial agent and also to monitor the activity of new antimicrobial agents. A MIC is generally regarded as the most basic laboratory measurement of the activity of an antimicrobial agent against an organism. MBC is defined as the lowest concentration of an antimicrobial agent needed to kill 99.9% of the initial organism inoculum. Presently, specific guidelines for interpretation are not available; therefore, a clinician knowledgeable in both bactericidal testing and infectious diseases should be available to interpret the results.
(§2) MICs were determined by the broth microdilution method described by the National Committee for Clinical Laboratory Standards (17). Serial twofold dilutions of each peptide solution were prepared (final volume, […]) in microtiter trays with appropriate medium. Each dilution series included control wells containing bacteria without peptide. A total of […] of the adjusted inoculum (100,000 organisms) was added to each well, and then the trays were incubated at
(§3) in ambient air overnight (18 to 24 h). The MIC of each peptide for each isolate was read as the lowest concentration of peptide that inhibited visible growth of the organism.
The above in vitro tests and analyses were conducted on a set of designed peptides of the present invention; and, for comparative purposes, naturally derived molecules.

Xanthomonas campestris = assay: Antimicrobial activity against pathogens (MIC80 / MBC100); format: cell-based
Description: (§4) A comparison of antimicrobial activity for these two naturally occurring peptides against various pathogens (combined fungal and bacterial) is summarized below

Aspergillus flavus = assay: as above; format: cell-based
Description: as §4

Fusarium moniliforme = assay: as above; format: cell-based
Description: as §4

Sinorhizobium = assay: MIC by broth microdilution; format: cell-based; set-up: unit not given here
Procedure: as §1, §2, §3

agrobacterium = assay: MIC by broth microdilution; format: cell-based; set-up: unit not given here
Procedure: as §1, §2, §3

Xanthomonas = assay: MIC by broth microdilution; format: cell-based; set-up: unit not given here
Procedure: as §1, §2, §3

[2] = system: agrobacterium, Sinorhizobium, Xanthomonas; assay: MIC by broth microdilution, mean over B1-B3; format: cell-based; conditions: mean of MIC for B1, B2, B3
Procedure: as §1, §2, §3

angiogenesis = conditions: known activity, seen as a safety problem for humans; cited from earlier work
[3] = system: pathogens of cotton, poplar and pome fruits such as pears and apples; conditions: tested by a number of labs throughout the world; cited from earlier work
Aspergillus fumigatus = assay: Antimicrobial activity against pathogens (MIC80 / MBC100); format: cell-based; conditions: concentration necessary to kill 100%
Description: as §4

Erwinia stewartii = assay: as above; format: cell-based; conditions: concentration necessary to kill 100%
Description: as §4

Fusarium oxysporum = assay: as above; format: cell-based; conditions: concentration necessary to kill 100%
Description: as §4

[4] = concentration of TP necessary to limit growth by 80%
[5] = concentration necessary to kill 100%

| Sequence | MIC for B2 (Sinorhizobium) | MIC for B1 (agrobacterium) | MIC for B3 (Xanthomonas) | Mean [2] | also measured |
| --- | --- | --- | --- | --- | --- |
| KWCFRVCYRGICYRRCR [TP, defensin-like peptide found in the hemolymph of the horseshoe crab] |  |  |  |  | Mean of Hemolysis ([1]; erythrocytes, 37° C. for 10 min): 3 µM; Mean Activity (bacteria): 0.3 µM; TP MIC80 (Xanthomonas campestris; [4]): 0.77 µM; TP MIC80 (Aspergillus flavus; [4]): 34 µM; TP MIC80 (Fusarium moniliforme; [4]): 21 µM |
| KAFKKAFKKFKKACFKGLCAKKFKKFAKKFAK [AGM 183] | 0.3 | 3 | 1 | 1.44 |  |
| RRRPRPPYLPRPRPPPFFPPRLPPRIPPGFPPRFPPRFP [PR39, antimicrobial peptide found in swine] |  |  |  |  | activities in mammals (angiogenesis): stimulation of angiogenesis |
| KFAKKFKKFAKKFCFKGLCAFKKAFKKFKKAF [AGM 184] | 0.3 | 1 | 1 | 0.77 |  |
| KIKARLCLGKFCIKARLK [AGM 182] | 0.3 | 1 | 1 | 0.77 |  |
| KARLKFCFKGLCIKIKVR [AGM 181] | 0.3 | 1 | 1 | 0.77 |  |
| FKLRAKIKVRLRAKIKL [D4E1, D4E1 (AgroMed), earlier synthetic lytic peptide tested by a number of labs] |  |  |  |  | Mean of Hemolysis [1]: 3.6 µM; efficacy in limiting plant pathogens [3]: efficacious in limiting pathogens of cotton, poplar and pome fruits; Mean Activity (bacteria): 0.77 µM; D4E1 MBC100 (Xanthomonas campestris; [5]): 2 µM; D4E1 MBC100 (Aspergillus flavus; concentration of D4E1 necessary to kill 100% of the pathogens): 12 µM; D4E1 MBC100 (Aspergillus fumigatus): 12 µM; D4E1 MBC100 (Erwinia stewartii): 1 µM; D4E1 MBC100 (Fusarium moniliforme; [5]): 3 µM; D4E1 MBC100 (Fusarium oxysporum): 3 µM |
